Data as given in patent US6897208B2, “Benzimidazoles” (Aventis Pharmaceuticals Inc., priority 2001, dated 2005).

system: not given; experiment: not given; settings: not given

Molecule	melting point [°C]
Cc1cc(-c2nc3ccccc3[nH]2)n[nH]1 [Example 236, 2-(5-Methyl-1H-pyrazol-3-yl)-1H-benzoimidazole]	322 to 324
CCOc1cc(-c2nc3ccccc3[nH]2)n[nH]1 [Example 237, 2-(5-Ethoxy-1H-pyrazol-3-yl)-1H-benzoimidazole]	217 to 219.5
CSc1cc(-c2nc3ccccc3[nH]2)no1 [Example 238, 2-(5-Methylsulfanyl-isoxazol-3-yl)-1H-benzoimidazole]	179 to 181
CSc1cc(-c2nc3ccccc3[nH]2)n[nH]1 [Example 240, (Benzoimidazol-2-yl)-5-methylthio-3-pyrazole]	242
COc1cc2nc(-c3n[nH]cc3NC(=O)C3CC3)[nH]c2cc1Cl [Example 258(a), Cyclopropanecarboxylic acid [3-(6-chloro-5-methoxy-1H-benzoimidazol-2-yl)-1H-pyrazol-4-yl]-amide]	225 to 226

target: T1, human KDR enzyme (Homo sapiens, UniProt P35968); experiment: Phosphorylation of PLCγ substrate by the enzyme KDR in vitro (flashplate technique); assay type: biochemical; settings: read-out: IC50 (μM) on inhibition of the phosphorylation of PLCγ by KDR
T1 construct: The cytoplasmic domain of human KDR enzyme is cloned in the form of a GST fusion; GST; made in house; host or cells: SF21 insect cells (baculovirus, pFastBac)
Description: 1. Inhibitory Effects of Compounds on KDR
The inhibitory effect of the compounds is determined in a test of phosphorylation of a substrate by the enzyme KDR in vitro by the flasplate technique (96-well plate, NEN).
The cytoplasmic domain of human KDR enzyme is cloned in the form of a GST fusion into the baculovirus expression vector pFastBac. The protein is expressed in the SF21 cells and purified to about 60% homogeneity.
The kinase activity of KDR is measured in 20 mM MOPS, 10 mM MgCl2, 10 mM MnCl2, 1 mM DTT, 2.5 mM EGTA, 10 mM β glycerophosphate, pH 7.2 in the presence of 10 mM MgCl2, 100 μM Na3VO4, 1 mM NaF. 10 μl of the compound are added to 70 μl of kinase buffer containing 100 ng of KDR enzyme at 4° C. The reaction is initiated by adding 20 μl of solution containing 2 μg of substrate (fragment SH2-SH3 of PLCγ expressed in the form of a GST fusion protein), 2 μCi γ33P[ATP] and 2 μM cold ATP. After incubating for 1 hour at 37° C., the reaction is quenched by adding 1 volume (100 μl) of 200 mM EDTA. The incubation buffer is removed and the wells are washed three times with 300 μl of PBS. The radioactivity is measured in each well using a Top Count NXT instrument (Packard).
Background noise is determined by measuring the radioactivity in wells in quadruplet containing radioactive ATP and the substrate alone.
An activity control is measured in wells in quadruplet containing all the reagents (γ33P-[ATP], KDR and the substrate PLCγ) and in the absence of compound.
The inhibition of the KDR activity with the compound of the invention is expressed as a percentage of inhibition of the control activity determined in the absence of compound.
The compound SU5614 (Calbiochem) (1 μM) is included in each plate as inhibition control.
The IC50 values for the compounds are calculated by plotting the dose-response curves. The IC50 corresponds to the concentration of compound that induces a 50% inhibition of the kinase activity.

T1 sequence (P35968 786-1356 limits assumed): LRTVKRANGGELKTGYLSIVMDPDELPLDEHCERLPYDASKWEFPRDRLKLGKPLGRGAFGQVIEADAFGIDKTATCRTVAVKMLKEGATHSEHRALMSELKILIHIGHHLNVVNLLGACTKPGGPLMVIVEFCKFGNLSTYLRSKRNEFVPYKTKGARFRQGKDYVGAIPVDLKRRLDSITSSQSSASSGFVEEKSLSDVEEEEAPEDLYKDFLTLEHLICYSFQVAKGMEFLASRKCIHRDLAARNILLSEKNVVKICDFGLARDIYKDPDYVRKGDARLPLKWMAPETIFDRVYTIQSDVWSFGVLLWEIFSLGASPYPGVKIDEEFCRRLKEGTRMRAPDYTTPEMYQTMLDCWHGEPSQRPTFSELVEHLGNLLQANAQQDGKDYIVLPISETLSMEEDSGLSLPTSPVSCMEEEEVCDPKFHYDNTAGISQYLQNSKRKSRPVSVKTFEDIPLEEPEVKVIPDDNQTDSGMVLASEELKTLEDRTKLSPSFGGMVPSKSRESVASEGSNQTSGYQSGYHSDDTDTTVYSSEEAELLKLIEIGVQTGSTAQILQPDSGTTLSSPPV

Molecule	IC50 [µM]
2-(1H-Indazol-3-yl)-1H-benzimidazole-5-carboxylic acid N-(2-furfuryl)amide [Example 12]	0.16
2-(1H-Indazol-3-yl)-1H-benzimidazole-5-carboxylic acid N-(N′-methyl-piperazino)amide [Example 8]	0.67
2-(1H-Indazol-3-yl)-1H-benzimidazole-5-carboxylic acid N-morpholinoamide [Example 7]	0.72
2-(1H-Indazol-3-yl)-1H-benzimidazole-5-carboxylic acid N-pyrrolidinoamide [Example 9]	0.35
